Assay results as given in article PMC3269340, “Pharmacokinetics of memantine in rats and mice” (PLoS Currents, 2012).
Where two headings read alike, the source gives them in different places.

Experiments:
[1] = Human pharmacokinetics (literature); type: in vivo
OATP2B1 = target: T1, OATP2B1 (Homo sapiens, UniProt O94956); test: Indirect uptake transporter assay, OATP2B1; type: in vitro ADME
T1 construct: expressed in transfected cells; host or cells: MDCKII cells
T1 sequence (O94956 1-709): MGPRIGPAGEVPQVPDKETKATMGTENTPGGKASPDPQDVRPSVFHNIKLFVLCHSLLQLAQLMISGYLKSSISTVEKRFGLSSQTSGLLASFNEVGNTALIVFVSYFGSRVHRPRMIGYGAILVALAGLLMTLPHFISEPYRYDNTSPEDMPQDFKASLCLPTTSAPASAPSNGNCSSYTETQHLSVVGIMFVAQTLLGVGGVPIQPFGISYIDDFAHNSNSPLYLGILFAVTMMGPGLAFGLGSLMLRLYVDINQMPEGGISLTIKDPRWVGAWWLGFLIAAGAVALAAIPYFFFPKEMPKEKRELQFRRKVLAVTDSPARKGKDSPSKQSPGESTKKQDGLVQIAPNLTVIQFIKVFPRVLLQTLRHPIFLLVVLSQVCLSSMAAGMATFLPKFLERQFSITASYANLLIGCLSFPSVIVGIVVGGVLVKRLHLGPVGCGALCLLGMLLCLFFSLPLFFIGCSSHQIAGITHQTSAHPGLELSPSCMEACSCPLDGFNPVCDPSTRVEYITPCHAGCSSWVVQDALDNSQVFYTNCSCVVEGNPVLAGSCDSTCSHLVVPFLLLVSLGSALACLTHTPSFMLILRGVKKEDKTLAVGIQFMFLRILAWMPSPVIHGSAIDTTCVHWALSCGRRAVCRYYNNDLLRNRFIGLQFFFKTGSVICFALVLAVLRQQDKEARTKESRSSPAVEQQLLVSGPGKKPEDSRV
Source text: To determine whether memantine is an inhibitor of the human OATP2B1 (OATP-B), OCT1, OCT2, OAT3, PEPT1, PEPT2 uptake transporters. The standard uptake transporter assay is an indirect, inhibitory-type screening assay, performed with cold test article, which in this case was memantine. It provides information on any interaction (substrate or inhibitor) between selected uptake transporters and memantine that would affect the transport of the reporter compound. […] A radiolabeled reporter substrate is transported into the cells transfected with the selected human uptake transporter, and the inhibitory effect of memantine on the transport of this reporter substrate is measured. Values are presented on a relative scale; 100% defined as transport in the presence of the solvent and without memantine (no inhibition), and 0% defined as transport detected without transporter activity. IC50 is defined as the concentration required to inhibit the transport of the reporter substrate by 50%. […]
After the experiment cells were rinsed with 2 x 100µl of Krebs-Henseleit buffer and lysed with 50 µl of 0.1M NaOH. ^3H-estrone-3-sulfate, ^14C-TEA, ^14C-metformin and ^3H-Gly-Sar transport was determined by total radioactivity by transferring an aliquot (35µl) from each well to a vial containing liquid scintillant for analysis.

[2] = system: Alzheimer's disease patients; conditions: cited from earlier work

CC12CC3CC(C)(C1)CC(N)(C3)C2 [memantine]
Contribution of active transport to clearance [1]: 30-40%
renal clearance higher than human GFR of 125 mL/min [1]: approximately 30%
total systemic clearance, times higher than GFR [1]: ~1.4 fold
total systemic clearance, times higher than GFR ([1]; listed as Memantine): ~ 1.4 fold
clearance ([1]; plasma, oral, 10 mg, estimated, read-out: Cl p (converted)): 2.67 mL/min/kg
IC50 (OATP2B1; OATP2B1, probe printed in Table 5: TEA (3.6 μM), methods and text: E3S): > 300 µM
inhibition at 300 µM (OATP2B1; human, probe 3H-estrone-3-sulfate, at 300 µM, read-out: inhibition of OATP2B1-mediated estrone-3-sulfate transport): 67%
efficacy in dementia patients ([2]; 10 mg single daily dose for 12 weeks): demonstrated efficacy
efficacy in moderate to severe AD ([2]; humans, 10 mg twice daily, 6-month study): efficacious
